# In US9284333B2, “Fused pyrroledicarboxamides and their use as pharmaceuticals” (SANOFI, priority 2012, dated 2016):
# Target: Human TASK-1 channels (Homo sapiens (Human), UniProt O14649)
# Test: Determination of the activity on the TASK-1 channel in Xenopus oocytes (two-microelectrode voltage clamp)
# Type: cell-based
# Conditions: compound concentration 5 μM
# How it was run: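 Xenopus oocytes were injected with human TASK-1 cRNA and recorded two days later by two-microelectrode voltage clamp, holding at −90 mV with 500 ms steps to 40 mV. Superfusion used ND96, pH 7.4, at room temperature, with rising compound concentrations; percentage inhibition of control current was fitted to a dose-response curve for IC50.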
# Chain of Human TASK-1 channels (O14649 whole entry): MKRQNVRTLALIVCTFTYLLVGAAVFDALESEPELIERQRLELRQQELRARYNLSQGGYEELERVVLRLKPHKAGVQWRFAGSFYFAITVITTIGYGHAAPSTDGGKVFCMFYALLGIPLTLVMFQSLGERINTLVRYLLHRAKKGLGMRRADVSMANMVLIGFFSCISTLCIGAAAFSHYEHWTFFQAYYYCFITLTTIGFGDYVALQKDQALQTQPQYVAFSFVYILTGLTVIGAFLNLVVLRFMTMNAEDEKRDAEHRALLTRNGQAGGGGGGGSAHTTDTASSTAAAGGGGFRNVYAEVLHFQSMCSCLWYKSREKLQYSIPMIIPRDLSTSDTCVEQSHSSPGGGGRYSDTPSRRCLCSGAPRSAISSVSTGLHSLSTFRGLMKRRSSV
row,inhibition at 5 µM [%],SMILES
1,83,"CC[C@@H](NC(=O)c1cc(C(=O)N2CCC[C@@H]2C)n2c1COCC2)c1ncccc1OC [16ao, 6-((S)-2-Methyl-pyrrolidine-1-carbonyl)-3,4-dihydro-1H-pyrrolo[2,1-c][1,4]oxazine-8-carboxylic acid [(R)-1-(3-methoxy-pyridin-2-yl)-propyl]-amide]"
2,59,"CC[C@@H](NC(=O)c1cc(C(=O)N2CC[C@@H](C#N)C2)n2c1COCC2)c1ccccc1 [16fy, 6-((R)-3-Cyano-pyrrolidine-1-carbonyl)-3,4-dihydro-1H-pyrrolo[2,1-c][1,4]oxazine-8-carboxylic acid ((R)-1-phenyl-propyl)-amide]"
3,83,"CC[C@@H](NC(=O)c1cc(C(=O)Nc2cncc(F)c2)n2c1CCCC2)c1ccccc1 [16ne, 5,6,7,8-Tetrahydro-indolizine-1,3-dicarboxylic acid 3-[(5-fluoro-pyridin-3-yl)-amide] 1-[((R)-1-phenyl-propyl)-amide]]"
4,72,"CCN(Cc1nnn(C)n1)C(=O)c1cc(C(=O)N[C@H](C)c2ccc(F)cc2)n2c1COCC2 [16rt, 3,4-Dihydro-1H-pyrrolo[2,1-c][1,4]oxazine-6,8-dicarboxylic acid 8-[ethyl-(2-methyl-2H-tetrazol-5-ylmethyl)-amide] 6-{[(R)-1-(4-fluoro-phenyl)-ethyl]-amide}]"
5,69,"CC[C@@H](NC(=O)c1cc(C(=O)N2CCC[C@@H]2C)n2c1COCC2)c1cncc(Cl)c1 [16cj, 6-((S)-2-Methyl-pyrrolidine-1-carbonyl)-3,4-dihydro-1H-pyrrolo[2,1-c][1,4]oxazine-8-carboxylic acid [(R)-1-(5-chloro-pyridin-3-yl)-propyl]-amide]"
6,72,"CC(c1ncccn1)N(CC1CC1)C(=O)c1cc(C(=O)N[C@H](C)c2ccc(F)cc2)n2c1COCC2 (stereo partly drawn) [16ea, 3,4-Dihydro-1H-pyrrolo[2,1-c][1,4]oxazine-6,8-dicarboxylic acid 8-[cyclopropylmethyl-(1-pyrimidin-2-yl-ethyl)-amide] 6-{[(R)-1-(4-fluoro-phenyl)-ethyl]-amide}]"
7,76,"CC[C@@H](NC(=O)c1cc(C(=O)N2CCC[C@@H]2C)n2c1CCCC2)c1ccc2c(c1)COC2=O [16lz, 3-((S)-2-Methyl-pyrrolidine-1-carbonyl)-5,6,7,8-tetrahydro-indolizine-1-carboxylic acid [(R)-1-(1-oxo-1,3-dihydro-isobenzofuran-5-yl)-propyl]-amide]"

# Same assay, conditions: human TASK-1 expressed in Xenopus oocytes, room temperature; read-out: IC50 value for TASK-1 inhibition
row,IC50 [nM],SMILES
1,58,"CC[C@@H](NC(=O)c1cc(C(=O)N[C@@H](C)c2ccc(F)cc2)n2c1CCCC2)c1ccccc1 [16lt, 5,6,7,8-Tetrahydro-indolizine-1,3-dicarboxylic acid 3-{[(S)-1-(4-fluoro-phenyl)-ethyl]-amide} 1-[((R)-1-phenyl-propyl)-amide]]"
2,550,"CC(NC(=O)c1cc(C(=O)N[C@@H](c2ccc(F)cc2)C(C)C)n2c1COCC2)c1cnccn1 (single isomer, unassigned) [16lp]"
3,100,"CC[C@@H](NC(=O)c1cc(C(=O)N2CCC[C@@H]2C)n2c1COCC2)c1cnc(OC)c(C(F)(F)F)c1 [16cn, 6-((S)-2-Methyl-pyrrolidine-1-carbonyl)-3,4-dihydro-1H-pyrrolo[2,1-c][1,4]oxazine-8-carboxylic acid [(R)-1-(6-methoxy-5-trifluoromethyl-pyridin-3-yl)-propyl]-amide]"
4,2800,"CC[C@@H](NC(=O)c1cc(C(=O)N2CCC[C@H]2C)n2c1COCC2)c1ccc(C(F)(F)F)nc1 [16ny, 6-((R)-2-Methyl-pyrrolidine-1-carbonyl)-3,4-dihydro-1H-pyrrolo[2,1-c][1,4]oxazine-8-carboxylic acid [(R)-1-(6-trifluoromethyl-pyridin-3-yl)-propyl]-amide]"
5,650,"CC[C@@H](NC(=O)c1cc(C(=O)N2CCC[C@@H]2C)n2c1COCC2)c1ccccn1 [16ph, 6-((S)-2-Methyl-pyrrolidine-1-carbonyl)-3,4-dihydro-1H-pyrrolo[2,1-c][1,4]oxazine-8-carboxylic acid ((R)-1-pyridin-2-yl-propyl)-amide]"
6,2400,"CC[C@@H](NC(=O)c1cc(C(=O)N2CCC[C@@H]2C)n2c1COCC2)c1ccc(C#N)nc1 [16aa, 6-((S)-2-Methyl-pyrrolidine-1-carbonyl)-3,4-dihydro-1H-pyrrolo[2,1-c][1,4]oxazine-8-carboxylic acid [(R)-1-(6-cyano-pyridin-3-yl)-propyl]-amide]"
7,800,"CC[C@@H](NC(=O)c1cc(C(=O)N2CCC[C@@H]2C)n2c1COCC2)c1cnc(C(F)(F)F)cc1C(F)(F)F [16by, 6-((S)-2-Methyl-pyrrolidine-1-carbonyl)-3,4-dihydro-1H-pyrrolo[2,1-c][1,4]oxazine-8-carboxylic acid [(R)-1-(4,6-bis-trifluoromethyl-pyridin-3-yl)-propyl]-amide]"
8,230,"CC[C@@H](NC(=O)c1cc(C(=O)N2CCC[C@@H]2C)n2c1COCC2)c1ccc(Cl)s1 [16rb, 6-((S)-2-Methyl-pyrrolidine-1-carbonyl)-3,4-dihydro-1H-pyrrolo[2,1-c][1,4]oxazine-8-carboxylic acid [(R)-1-(5-chloro-thiophen-2-yl)-propyl]-amide]"
9,820,"CC[C@@H](NC(=O)c1c(Br)c(C(=O)N2CCC[C@@H]2C)n2c1COCC2)c1ccc(C(F)(F)F)nc1 [16ru, 7-Bromo-6-((S)-2-methyl-pyrrolidine-1-carbonyl)-3,4-dihydro-1H-pyrrolo[2,1-c][1,4]oxazine-8-carboxylic acid [(R)-1-(6-trifluoromethyl-pyridin-3-yl)-propyl]-amide]"
10,180,"CC[C@@H](NC(=O)c1cc(C(=O)N2CCCC2COC(F)(F)F)n2c1COCC2)c1ccccc1 (stereo partly drawn) [16en, 6-(2-Trifluoromethoxymethyl-pyrrolidine-1-carbonyl)-3,4-dihydro-1H-pyrrolo[2,1-c][1,4]oxazine-8-carboxylic acid ((R)-1-phenyl-propyl)-amide]"
11,1500,"CC[C@@H](NC(=O)c1cc(C(=O)NCc2ncccn2)c2n1CCOC2)c1ccccc1 [16jm, 3,4-Dihydro-1H-pyrrolo[2,1-c][1,4]oxazine-6,8-dicarboxylic acid 6-[((R)-1-phenyl-propyl)-amide] 8-[(pyrimidin-2-ylmethyl)-amide]]"
12,620,"CC[C@@H](NC(=O)c1cc(C(=O)NCc2cnco2)c2n1CCCC2)c1ccccc1 [16mc, 5,67,8-Tetrahydro-indolizine-1,3-dicarboxylic acid 1-[(oxazol-5-ylmethyl)-amide] 3-[((R)-1-phenyl-propyl)-amide]]"
13,370,"CC[C@@H](NC(=O)c1cc(C(=O)N2CCC[C@@H]2C)n2c1COC(C)(C)C2)c1ccc(C#N)cc1 [16nx, 3,3-Dimethyl-6-((S)-2-methyl-pyrrolidine-1-carbonyl)-3,4-dihydro-1H-pyrrolo[2,1-c][1,4]oxazine-8-carboxylic acid [(R)-1-(4-cyano-phenyl)-propyl]-amide]"
14,220,"CC[C@@H](NC(=O)c1cc(C(=O)N[C@H](C)c2ccc(F)cc2)n2c1COCC2)c1ncccn1 [16dz, 3,4-Dihydro-1H-pyrrolo[2,1-c][1,4]oxazine-6,8-dicarboxylic acid 6-{[(R)-1-(4-fluoro-phenyl)-ethyl]-amide} 8-[((R)-1-pyrimidin-2-yl-propyl)-amide]]"
15,93,"CC[C@@H](NC(=O)c1cc(C(=O)N2CCC[C@@H]2C)n2c1COCC2)c1ccc(C(F)(F)F)c(F)c1 [16bm, 6-((S)-2-Methyl-pyrrolidine-1-carbonyl)-3,4-dihydro-1H-pyrrolo[2,1-c][1,4]oxazine-8-carboxylic acid [(R)-1-(3-fluoro-4-trifluoromethyl-phenyl)-propyl]-amide]"
16,200,"CC[C@H](NC(=O)c1cc(C(=O)N[C@H](C)c2ccc(F)cc2)c2n1CCOC2)c1ncccn1 [16nw, 3,4-Dihydro-1H-pyrrolo[2,1-c][1,4]oxazine-6,8-dicarboxylic acid 8-{[(R)-1-(4-fluoro-phenyl)-ethyl]-amide} 6-[((S)-1-pyrimidin-2-yl-propyl)-amide]]"
17,80,"CC[C@@H](NC(=O)c1cc(C(=O)NCc2nccs2)c2n1CCCC2)c1ccccc1 [16md, 5,6,7,8-Tetrahydro-indolizine-1,3-dicarboxylic acid 3-[((R)-1-phenyl-propyl)-amide] 1-[(thiazol-2-ylmethyl)-amide]]"
18,2400,"CC[C@@H](NC(=O)c1cc(C(=O)N2CCC[C@@H]2C)n2c1COCC2)c1cnc(C(F)(F)F)c(OC)c1 [16cw, 6-((S)-2-Methyl-pyrrolidine-1-carbonyl)-3,4-dihydro-1H-pyrrolo[2,1-c][1,4]oxazine-8-carboxylic acid [(R)-1-(5-methoxy-6-trifluoromethyl-pyridin-3-yl)-propyl]-amide]"
19,440,"CC[C@@H](NC(=O)c1cc(C(=O)N2CCCC2)n2c1COCC2)c1ccccc1C(F)(F)F [16da, 6-(Pyrrolidine-1-carbonyl)-3,4-dihydro-1H-pyrrolo[2,1-c][1,4]oxazine-8-carboxylic acid [(R)-1-(2-trifluoromethyl-phenyl)-propyl]-amide]"
20,460,"CC[C@@H](NC(=O)c1cc(C(=O)NC(C)c2ncccn2)c2n1CCOC2)c1ccccc1 (mixture of isomers) [16ka, 3,4-Dihydro-1H-pyrrolo[2,1-c][1,4]oxazine-6,8-dicarboxylic acid 6-[((R)-1-phenyl-propyl)-amide] 8-[(1-pyrimidin-2-yl-ethyl)-amide]]"
21,360,"CC[C@@H](NC(=O)c1cc(C(=O)N[C@H](CC)c2cccc(O)c2)n2c1COCC2)c1ccccc1 [16ix, 3,4-Dihydro-1H-pyrrolo[2,1-c][1,4]oxazine-6,8-dicarboxylic acid 6-{[(R)-1-(3-hydroxy-phenyl)-propyl]-amide} 8-[((R)-1-phenyl-propyl)-amide]]"
22,350,"CC[C@@H](NC(=O)c1cc(C(=O)NCc2ncco2)n2c1COCC2)c1ccccc1 [16ha, 3,4-Dihydro-1H-pyrrolo[2,1-c][1,4]oxazine-6,8-dicarboxylic acid 6-[(oxazol-2-ylmethyl)-amide] 8-[((R)-1-phenyl-propyl)-amide]]"
